We go through 10 compounds from US9227970B2, “Triazolopyridine compounds” (Hoffmann-La Roche Inc., priority 2011, dated 2016).

One may read the IC50 as the midpoint of a concentration-inhibition curve. For orientation: melting point means the temperature of the solid-liquid transition.

The target in series [1] is human PDE10A (Homo sapiens (Human), UniProt Q9Y233). Nature of the series: human PDE10A full length Scintillation Proximity Assay (SPA). It is filed as biochemical. As to conditions: 50 nM cGMP + 50 nM [3H]-cGMP, 20 minutes at room temperature, read-out: PDE10A inhibition IC50. On the procedure: The following test was carried out in order to determine the activity of the compounds of the present invention. […] The human PDE10A full length assay was performed in 96-well micro titer plates. […] A range of concentrations of the potential inhibitor was used to generate data for calculating the concentration of inhibitor resulting in 50% of the effect (e.g. […] Non-specific activity was tested without the enzyme. The reaction was initiated by the addition of the substrate solution (cGMP and [^3H]-cGMP) and allowed to progress for 20 minutes at room temperature. The reaction was terminated by adding 25 μl of YSi-SPA scintillation beads (GE Healthcare, cat. # RPNQ0150) in 18 mM zinc sulphate solution (stop reagent). […] Afterwards, radioactive counts were measured on a Perkin Elmer Top-Count Scintillation plate reader.
human PDE10A, sequence (Q9Y233 other isoform, or with tags, fused parts or gaps): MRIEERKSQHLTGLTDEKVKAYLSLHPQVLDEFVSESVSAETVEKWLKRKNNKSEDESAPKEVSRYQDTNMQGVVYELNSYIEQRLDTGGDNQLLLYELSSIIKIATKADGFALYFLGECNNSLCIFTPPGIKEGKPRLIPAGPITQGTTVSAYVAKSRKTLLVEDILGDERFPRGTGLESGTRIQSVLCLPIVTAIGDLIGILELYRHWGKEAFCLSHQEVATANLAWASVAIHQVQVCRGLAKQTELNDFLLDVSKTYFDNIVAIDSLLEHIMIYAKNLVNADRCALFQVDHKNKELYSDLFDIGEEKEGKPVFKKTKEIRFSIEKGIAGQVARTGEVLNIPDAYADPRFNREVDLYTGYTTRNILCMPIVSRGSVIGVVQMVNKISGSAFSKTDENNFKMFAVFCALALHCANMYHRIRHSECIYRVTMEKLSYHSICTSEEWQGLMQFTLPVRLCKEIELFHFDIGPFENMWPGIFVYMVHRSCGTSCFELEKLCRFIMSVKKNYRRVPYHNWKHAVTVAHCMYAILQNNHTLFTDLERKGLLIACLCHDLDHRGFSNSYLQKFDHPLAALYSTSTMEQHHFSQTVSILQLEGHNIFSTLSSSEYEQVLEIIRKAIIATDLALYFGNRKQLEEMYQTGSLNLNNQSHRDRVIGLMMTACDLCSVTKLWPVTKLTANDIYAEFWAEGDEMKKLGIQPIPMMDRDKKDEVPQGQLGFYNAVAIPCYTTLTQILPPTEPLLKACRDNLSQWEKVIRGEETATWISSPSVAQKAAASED
A general note: SPA uses beads or plates that emit light when radiolabelled molecules are held near them.

The subject of series [2] is Salmonella. Description: Ames test (downscaled preincubation version). Type of series: cell-based. The conditions noted are these: downscaled standard preincubation Ames test. On the procedure: Ames Test was performed as a downscaled version of the standard preincubation Ames test and adapted from the method described by Kado et al. with some modifications e.g. Maron. D. M. and B. N. Ames (1983). Revised methods for the Salmonella mutagenicity test. Mutation Research, 113, 173-215. N. Y. Kado, D. Langley and E. Eisenstadt A simple modification of the Salmonella liquid-incubation assay. Increased sensitivity for detecting mutagens in human urine, Mutat Res 121 (1983) 25-32.
(In the Ames test, an excess of revertant colonies over the control signals mutagenicity.)

`Cn1ncc(C(=O)N2CCC2)c1C(=O)Nc1ccc2nc(-c3ccccc3)nn2c1` [Example 3, 4-(Azetidine-1-carbonyl)-2-methyl-2H-pyrazole-3-carboxylic acid (2-phenyl-[1,2,4]triazolo[1,5-a]pyridin-6-yl)-amide] had a melting point of 235 to 236 °C. For the same compound, in series [1], the IC50 came to 0.6 nM. The Ames test entry in series [2] was “negative”.
As to `Cn1ncc(C(=O)N2CCOCC2)c1C(=O)Nc1ccc2nc(-c3ccccc3)nn2c1` [Example 5, 1-Methyl-4-(morpholine-4-carbonyl)-N-(2-phenyl-[1,2,4]triazolo[1,5-a]pyridin-6-yl)-1H-pyrazole-5-carboxamide], the melting point was in the range of 183 to 185 °C. Also, the IC50 in series [1] is 2.5 nM. Further, the Ames test result in series [2] is on record as “negative”.
On to `Cn1ncc(C(=O)N2CCC2)c1C(=O)Nc1ccc2nc(N3CCOCC3)nn2c1` [Example 15], for which, in series [2], the Ames test result is given as “negative”.
As to `Cn1ncc(C(=O)O)c1C(=O)Nc1ccc2nc(-c3ccccc3)nn2c1` [Example 1, 1-Methyl-5-(2-phenyl-[1,2,4]triazolo[1,5-a]pyridin-6-ylcarbamoyl)-1H-pyrazole-4-carboxylic acid], the melting point stood at 259 °C. In series [1], the IC50 was found to be 47.3 nM.
Turning to `CN(C(=O)c1cnn(C)c1C(=O)Nc1ccc2nc(-c3ccccc3)nn2c1)C1CC1` [Example 8, 2-Methyl-2H-pyrazole-3,4-dicarboxylic acid 4-(cyclopropyl-methyl-amide) 3-[(2-phenyl-[1,2,4]triazolo[1,5-a]pyridin-6-yl)-amide]], the melting point was 106 °C. Besides, the IC50 in series [1] stood at 0.9 nM.
Compound `CN(C(=O)c1cnn(C)c1C(=O)Nc1ccc2nc(-c3cccnc3)nn2c1)C1CC1` [Example 11, N4-Cyclopropyl-N4,1-dimethyl-N5-(2-(pyridin-3-yl)-[1,2,4]triazolo[1,5-a]pyridin-6-yl)-1H-pyrazole-4,5-dicarboxamide] gave a melting point of 237 °C. For the same compound, the IC50 in series [1] was 6.7 nM. The Ames test entry in series [2] is “negative”.
Turning to `CN(C)c1nc2ccc(NC(=O)c3c(C(=O)N4CCC4)cnn3C)cn2n1` [Example 20, 4-(Azetidine-1-carbonyl)-2-methyl-2H-pyrazole-3-carboxylic acid (2-dimethylamino-[1,2,4]triazolo[1,5-a]pyridin-6-yl)-amide], the half-maximal inhibitory concentration (IC50) in series [1] was 8.2 nM. The Ames test entry in series [2] is “negative”.
For `Cn1ncc(C(=O)N2CCOCC2)c1C(=O)Nc1ccc2nc(-c3cccnc3)nn2c1` [Example 9, 2-Methyl-4-(morpholine-4-carbonyl)-2H-pyrazole-3-carboxylic acid (2-pyridin-3-yl-[1,2,4]triazolo[1,5-a]pyridin-6-yl)-amide], the melting point was found to be 229 °C. In addition, in series [1], the IC50 amounted to 13.2 nM.
Regarding `CN(C)c1nc2ccc(NC(=O)c3c(C(=O)N4CCOCC4)cnn3C)cn2n1` [Example 19, 2-Methyl-4-(morpholine-4-carbonyl)-2H-pyrazole-3-carboxylic acid (2-dimethylamino-[1,2,4]triazolo[1,5-a]pyridin-6-yl)-amide], the IC50 in series [1] worked out at 36 nM. In addition, the Ames test entry in series [2] was “negative”.
As to `Cn1ncc(C(=O)N2CCC2)c1C(=O)Nc1ccc2nc(-c3cccnc3)nn2c1` [Example 10, 4-(Azetidine-1-carbonyl)-1-methyl-N-(2-(pyridin-3-yl)-[1,2,4]triazolo[1,5-a]pyridin-6-yl)-1H-pyrazole-5-carboxamide], the melting point was 272 °C. Moreover, the IC50 in series [1] amounted to 43.6 nM.
